Data published in patent publication US11920125B2, “Methods and agricultural compositions for preventing or controlling plant diseases” (Tenfold Technologies, LLC, priority 2017, dated 2024).

How the values were obtained:
R. solani = assay: Pot assay, microbial drench treatments on Ozark soybean seedlings in pots infested with R. solani; assay type: in vivo; conditions: chemical control at 0.06 g/lb of soybean seeds
Protocol: In pot assays, WB or its dilutions were applied as a seed coating or as a a simulated in-furrow application in pots containing soil inoculated with the pathogen. Measurements of the percent of emergence, plant growth stage, and disease rating were used to assess biocontrol efficacy. Whole broth (WB) or WB dilutions were applied either as a simulated in-furrow treatment or a seed treatment applied to soybean seed. For simulated in-furrow application, 1 ml of biocontrol treatment or negative and positive controls was pipetted over the seed placed in 0.5 cm deep depressions made in peat-lite mix potting medium inoculated with the pathogen and prior to covering with the potting medium. Seed treatments were applied by coating soybean seed with the biocontrol and control treatments prior to planting into an inoculated potting medium. The negative control was reverse osmosis-purified (RO) water applied to seed in inoculated pots. The positive controls were Satori® (azoxystrobin) and Subtilex® (Bacillus subtilis strain MBI 600) applied at the labelled rates. In addition, a mock-inoculated treatment without pathogen inoculation was included in each test. Inoculation was done by thoroughly mixing 1 L of a slurry, made by blending two fully Rhizoctonia solani-colonized potato dextrose cultures in 200 ml RO water, with 4 L peat-lite mix (e.g., Sunshine LC1 potting mix) using a cement mixer. Experimental units were five seeds per pot and the treatments were arranged in a completely random design with four replicates. The tests were conducted on light carts illuminated with LED lamps (16 hour day/8 hour night) for 7-10 days at 26-28° C. The pots were irrigated as needed with RO water. Measurements of the percent emergence, plant growth stage (Munger, et al., 2008), and disease severity rating (0, no disease, to 5, dead plant) were collected from each plant at the end of each test, and the means of the experimental units were analyzed using JMP version 11 (SAS, Cary, NC).
In a separate pot assay, treatments were applied directly as a drench.

Rhizoctonia = Rhizoctonia control field trial, soybean seed treatment, Fisher, Indiana; conditions: isolates (GB6-M) 20 μl WB/Seed; Fludioxonil 0.02 mg/Seed
Protocol: For all treatments, the target concentration is 20 μl water/seed, which corresponds to 60 ml/460 g seeds. Sixty (60) ml liquid was added to every 460 g soybean seeds for a total of six times. Each time, 10 ml of liquid was added to the 460 g seeds and mixed for 15 seconds. Coated seeds were dried for 5-10 minutes under ventilation between the additions. Final coated seeds were dried overnight in a biocontainment hood.

Pythium irregulare = assay: Pot assay, bacterial isolates with or without fungicide Satori for control of Pythium irregulare on soybean; assay type: in vivo
Protocol: In order to test the performance of bacterial isolates, with or without the presence of the fungicide Satori® (active ingredient is azoxystrobin), samples were applied as simulated in-furrow by pipetting in 1 ml over each seed after the seeds were placed in a 1 cm deep depression. The combination was prepared by combining each bacterial whole broth (MS1479, MS2379, MS2414, or MS2820) (which was grown in GB6-M8) with an equal volume (1:1) of Satori®. The agar slurry inoculation method was used after blending two agar cultures of P. irregulare in 200 ml RO water and then mixed with 4 L of peat-lite mix in a cement mixer. Five soybean seeds (genotype WS2620) were sown in each pot with 1 ml treatment over each seed (in-furrow simulation). Then the pots were incubated at 16° C. for 1 week and then 23° C. for another week before evaluation. The disease severity scale: 1=80-100%, 2=60-79%, 3=40-59%, 4=20-39%, 5=1-19%, and 6=0% damaged roots. (Table 16).

SMILES | Disease Rating (R. solani; 0 = no disease to 5 = plant dead, 7 days) | # Emerged Plants (R. solani; 7 days after sowing, of four seeds per pot) | Plant Growth Stage (R. solani; scale 1-4, 7 days) | Stand (No of plants per acre) at 11 DAP (Rhizoctonia) [plants per acre] | Stand (No of plants per acre) at 16 DAP (Rhizoctonia) [plants per acre] | Stand (No of plants per acre) at 49 DAP (Rhizoctonia) [plants per acre] | Total # Diseased per plot (187.5 ft^2 per plot area) (Rhizoctonia) | Vigor Rating (1-5: 1 = worst, 5 = best) (Rhizoctonia) | Plant development (Pythium irregulare; five soybean seeds per pot, 1 ml treatment over each seed) | Plant emergence (Pythium irregulare; five soybean seeds per pot, 1 ml treatment over each seed, 16° C. 1 week then 23° C. 1 week) | Disease severity (Pythium irregulare; scale 1=80-100%, 2=60-79%, 3=40-59%, 4=20-39%, 5=1-19%, 6=0% damaged roots (higher = healthier))
N#Cc1c[nH]cc1-c1cccc2c1OC(F)(F)O2 [Fludioxonil] | 3.0^F | 2.0^B | 2.2^B | 2614 | 20038 | 16939 | 7.3 | 1.8 | – | – | –
COCC(=O)N(c1c(C)cccc1C)C(C)C(=O)OC (centres unmarked) [Metalaxyl] | – | – | – | – | – | – | – | – | 12.55 | 5 | 4.35
